Experimental data taken from ChEMBL document CHEMBL1201862, “PubChem BioAssay data set” (2004).
The source made the active and inactive calls.

Key:
[1] = target: Glucose-6-phosphate 1-dehydrogenase (Homo sapiens, UniProt P11413); assay: human G6PD enzyme inhibitors, dose response, selectivity assay for P. falciparum G6PD inhibitor project, biochemical, fluorescence (AID 504792); assay type: functional
[2] = target: DNA dC->dU-editing enzyme APOBEC-3G (Homo sapiens, UniProt Q9HC16); assay: Dose Response confirmation of small molecule APOBEC3G DNA Deaminase Inhibitors via a fluorescence-based single-stranded DNA deaminase assay. [Related pubchem assays (depositor defined):AID493012, AID493028]; assay type: functional
DNA dC->dU-editing enzyme APOBEC-3G, sequence (Q9HC16 whole entry): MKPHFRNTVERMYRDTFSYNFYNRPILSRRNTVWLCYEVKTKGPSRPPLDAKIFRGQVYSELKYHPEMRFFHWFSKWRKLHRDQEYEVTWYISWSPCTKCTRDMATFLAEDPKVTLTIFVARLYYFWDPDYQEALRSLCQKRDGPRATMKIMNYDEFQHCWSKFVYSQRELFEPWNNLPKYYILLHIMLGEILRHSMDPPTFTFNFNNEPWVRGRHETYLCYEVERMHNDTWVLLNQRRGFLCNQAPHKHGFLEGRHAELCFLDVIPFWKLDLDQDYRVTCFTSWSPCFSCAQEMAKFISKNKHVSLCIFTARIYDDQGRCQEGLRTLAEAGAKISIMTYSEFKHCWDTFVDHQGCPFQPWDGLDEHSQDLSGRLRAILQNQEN

Coagulation factor XII = target: T1, Coagulation factor XII (Homo sapiens, UniProt P00748); assay type: functional;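 also: activated factor XIIa alpha cleaving a fluorogenic AMC peptide substrate; inhibitor potency from loss of enzyme activity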
T1 sequence (P00748 whole entry): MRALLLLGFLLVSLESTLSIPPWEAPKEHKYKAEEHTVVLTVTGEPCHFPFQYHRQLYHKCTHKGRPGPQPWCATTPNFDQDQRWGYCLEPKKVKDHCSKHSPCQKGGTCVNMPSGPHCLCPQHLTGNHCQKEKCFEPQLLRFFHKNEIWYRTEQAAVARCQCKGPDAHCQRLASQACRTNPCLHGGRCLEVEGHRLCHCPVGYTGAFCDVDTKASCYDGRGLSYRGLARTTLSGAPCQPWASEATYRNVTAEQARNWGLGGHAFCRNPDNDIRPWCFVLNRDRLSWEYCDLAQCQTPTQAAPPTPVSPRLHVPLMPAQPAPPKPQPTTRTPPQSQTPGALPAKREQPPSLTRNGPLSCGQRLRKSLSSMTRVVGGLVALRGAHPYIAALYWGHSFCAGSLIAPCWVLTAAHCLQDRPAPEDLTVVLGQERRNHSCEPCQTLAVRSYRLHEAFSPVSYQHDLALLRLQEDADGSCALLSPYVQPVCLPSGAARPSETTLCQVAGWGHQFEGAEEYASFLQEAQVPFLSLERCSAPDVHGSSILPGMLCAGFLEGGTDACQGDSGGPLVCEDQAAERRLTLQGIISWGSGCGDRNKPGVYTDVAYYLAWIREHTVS

[3] = NIH-3T3 fibroblast cytotoxicity, dose response, cytotoxicity control, cell-based, fluorescence, Alamar Blue, secondary assay (AID 2327); assay type: functional;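 also: NIH-3T3 mouse fibroblasts cultured with fluconazole at 8 µg/mL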
[4] = C. albicans growth with fluconazole, confirmation, fluorescence, retest (AID 2467); assay type: functional, cell-based
[5] = target: T2, Serine/threonine-protein phosphatase (Candida dubliniensis (strain CD36 / CBS 7987 / NCPF 3949 / NRRLY-17841) (Yeast), UniProt B9W6M3); assay: calcineurin pathway inhibitors in yeast reporter, dose response, S. cerevisiae, CDRE-lacZ, luminescence, secondary (AID 2388); assay type: functional, cell-based;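 also: yeast reporter cells carrying a calcineurin-responsive lacZ construct stimulated with calcium chloride; luminescent beta-galactosidase reporter signal in whole cells rather than isolated phosphatase activity; potency for inhibition where a drop in reporter signal means calcineurin blockade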
T2 sequence (B9W6M3 whole entry): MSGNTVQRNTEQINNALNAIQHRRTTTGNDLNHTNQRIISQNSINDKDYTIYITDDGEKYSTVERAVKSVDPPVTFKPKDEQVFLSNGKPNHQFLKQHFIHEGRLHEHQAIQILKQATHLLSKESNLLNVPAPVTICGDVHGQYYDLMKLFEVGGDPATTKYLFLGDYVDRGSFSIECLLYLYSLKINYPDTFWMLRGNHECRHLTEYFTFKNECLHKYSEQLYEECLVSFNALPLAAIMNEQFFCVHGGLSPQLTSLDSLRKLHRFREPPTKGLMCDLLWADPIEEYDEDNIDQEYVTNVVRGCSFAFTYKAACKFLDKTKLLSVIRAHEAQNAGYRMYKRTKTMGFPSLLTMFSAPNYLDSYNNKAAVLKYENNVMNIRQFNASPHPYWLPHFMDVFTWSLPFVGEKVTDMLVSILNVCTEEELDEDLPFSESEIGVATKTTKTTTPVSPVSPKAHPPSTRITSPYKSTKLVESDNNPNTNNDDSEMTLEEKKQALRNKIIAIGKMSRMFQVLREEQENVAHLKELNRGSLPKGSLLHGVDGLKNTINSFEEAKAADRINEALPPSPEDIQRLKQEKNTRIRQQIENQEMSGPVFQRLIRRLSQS

Bcl-2-related protein A1 = target: T3, Bcl-2-related protein A1 (Mus musculus, UniProt Q07440); assay type: functional;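 also: confirmatory dose–response counterscreen on Bfl-1, used to check hits from a UBC13 polyubiquitin inhibitor campaign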
T3 sequence (Q07440 whole entry): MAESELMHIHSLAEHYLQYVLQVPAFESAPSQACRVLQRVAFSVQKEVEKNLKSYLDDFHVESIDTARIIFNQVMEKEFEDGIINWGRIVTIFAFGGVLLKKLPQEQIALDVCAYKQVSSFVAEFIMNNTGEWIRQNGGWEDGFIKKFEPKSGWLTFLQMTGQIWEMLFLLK

[6] = target: T4, Ubiquitin-conjugating enzyme E2 N (Homo sapiens, UniProt P61088); assay type: functional
T4 sequence (P61088 whole entry): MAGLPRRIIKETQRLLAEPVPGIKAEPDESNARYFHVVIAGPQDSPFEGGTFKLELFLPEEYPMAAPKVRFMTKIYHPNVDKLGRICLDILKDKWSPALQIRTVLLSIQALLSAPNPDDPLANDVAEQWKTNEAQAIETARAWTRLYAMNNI

[7] = target: T4, Ubiquitin-conjugating enzyme E2 N; assay type: functional; remark: listed apart in the source
[8] = target: Heat shock protein HSP 90-alpha (Homo sapiens, UniProt P07900); assay type: functional, organism-based
[9] = target: ATP-dependent molecular chaperone HSP82 (Candida albicans (strain WO-1) (Yeast), UniProt C4YTQ8); assay: loss of DOC-induced GRE-beta-galactosidase reporter signal, dose response, Hsp90 inhibitor project, S. cerevisiae, luminescence (AID 2400); assay type: functional, cell-based;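 also: beta-galactosidase luminescence from glucocorticoid response element reporter as proxy for Hsp90 function; inhibitor potency where signal loss means Hsp90 inhibition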
ATP-dependent molecular chaperone HSP82, sequence (C4YTQ8 whole entry): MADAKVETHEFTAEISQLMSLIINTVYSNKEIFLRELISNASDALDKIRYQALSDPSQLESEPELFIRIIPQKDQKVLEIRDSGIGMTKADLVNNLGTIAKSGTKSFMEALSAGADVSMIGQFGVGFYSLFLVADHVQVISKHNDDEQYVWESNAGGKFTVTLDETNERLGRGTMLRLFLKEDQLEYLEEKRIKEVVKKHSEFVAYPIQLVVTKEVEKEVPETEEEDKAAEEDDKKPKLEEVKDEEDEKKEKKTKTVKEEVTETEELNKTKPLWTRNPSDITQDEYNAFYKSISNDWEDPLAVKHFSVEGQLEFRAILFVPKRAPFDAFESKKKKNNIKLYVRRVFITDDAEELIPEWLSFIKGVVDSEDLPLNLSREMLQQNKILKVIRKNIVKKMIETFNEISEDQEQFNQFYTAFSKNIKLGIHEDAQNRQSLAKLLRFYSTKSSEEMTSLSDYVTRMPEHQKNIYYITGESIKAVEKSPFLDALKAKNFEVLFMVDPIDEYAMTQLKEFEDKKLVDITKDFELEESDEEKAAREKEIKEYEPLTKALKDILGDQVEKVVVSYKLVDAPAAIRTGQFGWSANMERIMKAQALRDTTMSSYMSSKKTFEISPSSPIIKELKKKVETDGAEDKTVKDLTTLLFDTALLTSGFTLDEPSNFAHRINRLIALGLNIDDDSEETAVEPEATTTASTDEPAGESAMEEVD

[10] = A Cell Based Secondary Assay To Explore Cytotoxicity of Compounds that Sensitize Mycobacterium Tuberculosis to Beta-Lactam Antibiotics.; assay type: functional
[11] = target: T5, Short transient receptor potential channel 4 (Mus musculus, UniProt Q9QUQ5); assay: mouse TRPC4 channel activators, dose response, cell-based, HEK293 TRPC4/mu-opioid, Fluo-4 calcium (AID 434937); assay type: functional
T5 sequence (Q9QUQ5 whole entry): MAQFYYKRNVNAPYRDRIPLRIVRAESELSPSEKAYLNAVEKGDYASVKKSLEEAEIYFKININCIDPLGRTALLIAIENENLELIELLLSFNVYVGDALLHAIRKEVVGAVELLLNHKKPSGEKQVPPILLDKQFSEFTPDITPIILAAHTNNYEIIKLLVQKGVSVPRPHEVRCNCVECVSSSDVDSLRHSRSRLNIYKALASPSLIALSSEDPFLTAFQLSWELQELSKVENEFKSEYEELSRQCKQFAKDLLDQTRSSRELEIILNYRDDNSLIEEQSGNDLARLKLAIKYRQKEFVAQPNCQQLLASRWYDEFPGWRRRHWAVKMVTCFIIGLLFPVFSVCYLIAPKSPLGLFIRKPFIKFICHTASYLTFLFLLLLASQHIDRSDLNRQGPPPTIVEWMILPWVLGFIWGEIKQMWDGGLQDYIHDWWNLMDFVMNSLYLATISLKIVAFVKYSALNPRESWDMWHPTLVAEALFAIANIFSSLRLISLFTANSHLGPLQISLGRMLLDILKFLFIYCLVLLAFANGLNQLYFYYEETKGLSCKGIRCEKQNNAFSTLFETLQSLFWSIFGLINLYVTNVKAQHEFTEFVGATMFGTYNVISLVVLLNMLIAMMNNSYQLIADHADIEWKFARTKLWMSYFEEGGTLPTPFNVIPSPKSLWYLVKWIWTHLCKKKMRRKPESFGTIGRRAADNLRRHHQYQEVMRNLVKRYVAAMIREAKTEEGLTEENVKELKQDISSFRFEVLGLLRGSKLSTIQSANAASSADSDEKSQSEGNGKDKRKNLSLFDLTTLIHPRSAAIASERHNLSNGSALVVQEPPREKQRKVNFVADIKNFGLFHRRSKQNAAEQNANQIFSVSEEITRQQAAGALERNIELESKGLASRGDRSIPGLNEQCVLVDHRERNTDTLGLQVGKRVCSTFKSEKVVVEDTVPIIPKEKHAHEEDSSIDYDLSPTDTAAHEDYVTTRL

[12] = target: Delta-type opioid receptor (Homo sapiens, UniProt P41143); assay: Counterscreen for agonists of heterodimerization of the mu 1 (OPRM1) and delta 1 (OPRD1) opioid receptors: Luminescence-based cell-based high throughput dose response assay to identify agonists of OPRD1 homodimerization. [Related pubchem assays (depositor defined):AID504326, AID504355, AID504692, AID504904, AID504905]; assay type: functional
Delta-type opioid receptor, sequence (P41143 whole entry): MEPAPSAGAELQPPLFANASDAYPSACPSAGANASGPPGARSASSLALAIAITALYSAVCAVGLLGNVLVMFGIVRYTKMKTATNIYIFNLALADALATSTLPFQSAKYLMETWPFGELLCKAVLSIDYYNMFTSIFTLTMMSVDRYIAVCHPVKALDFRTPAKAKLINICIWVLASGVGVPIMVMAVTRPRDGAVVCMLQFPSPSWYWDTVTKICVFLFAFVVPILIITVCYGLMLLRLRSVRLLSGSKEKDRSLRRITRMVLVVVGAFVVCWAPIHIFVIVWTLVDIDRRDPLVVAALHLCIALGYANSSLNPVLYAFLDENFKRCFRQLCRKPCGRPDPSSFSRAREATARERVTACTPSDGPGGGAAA

Mu-type opioid receptor = Mu-type opioid receptor (Homo sapiens, UniProt P35372); assay: Counterscreen for agonists of heterodimerization of the mu 1 (OPRM1) and delta 1 (OPRD1) opioid receptors: Luminescence-based cell-based high throughput dose response assay to identify agonists of OPRM1 homodimerization.; assay type: functional;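 also: U2OS cells expressing OPRM1 and beta-arrestin as split beta-galactosidase partners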
Mu-type opioid receptor, sequence (P35372 whole entry): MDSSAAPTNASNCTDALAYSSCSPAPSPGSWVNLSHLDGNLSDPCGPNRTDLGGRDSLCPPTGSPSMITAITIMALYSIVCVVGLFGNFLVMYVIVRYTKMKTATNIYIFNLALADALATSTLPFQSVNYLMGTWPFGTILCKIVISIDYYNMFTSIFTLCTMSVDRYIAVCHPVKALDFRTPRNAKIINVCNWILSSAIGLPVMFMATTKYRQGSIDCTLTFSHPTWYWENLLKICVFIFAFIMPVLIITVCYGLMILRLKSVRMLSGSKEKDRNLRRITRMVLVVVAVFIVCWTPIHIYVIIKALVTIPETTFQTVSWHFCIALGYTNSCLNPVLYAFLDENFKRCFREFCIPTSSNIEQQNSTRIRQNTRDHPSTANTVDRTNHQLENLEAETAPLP

[13] = target: 5-hydroxytryptamine receptor 5A (Homo sapiens, UniProt P47898); assay: Counterscreen for agonists of OPRM1-OPRD1 heterodimerization: luminescence-based cell-based high throughput dose response assay to identify agonists of 5-hydroxytryptamine (serotonin) 5A receptor (HTR5A). [Related pubchem assays (depositor defined):AID504326, AID504355, AID504692, AID504904, AID504905]; assay type: functional
5-hydroxytryptamine receptor 5A, sequence (P47898 whole entry): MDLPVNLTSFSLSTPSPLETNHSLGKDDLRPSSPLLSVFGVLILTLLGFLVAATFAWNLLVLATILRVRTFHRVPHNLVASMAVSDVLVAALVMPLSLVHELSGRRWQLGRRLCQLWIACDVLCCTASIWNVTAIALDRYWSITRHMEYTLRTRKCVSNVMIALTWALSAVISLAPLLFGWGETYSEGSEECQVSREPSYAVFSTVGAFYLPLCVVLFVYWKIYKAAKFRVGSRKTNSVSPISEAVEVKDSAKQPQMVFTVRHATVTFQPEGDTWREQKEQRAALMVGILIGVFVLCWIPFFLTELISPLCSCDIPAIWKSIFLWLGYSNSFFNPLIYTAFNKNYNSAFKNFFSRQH

[14] = target: T6, DNA repair protein RAD52 homolog (Homo sapiens, UniProt P43351); assay type: functional, biochemical
T6 sequence (P43351 whole entry): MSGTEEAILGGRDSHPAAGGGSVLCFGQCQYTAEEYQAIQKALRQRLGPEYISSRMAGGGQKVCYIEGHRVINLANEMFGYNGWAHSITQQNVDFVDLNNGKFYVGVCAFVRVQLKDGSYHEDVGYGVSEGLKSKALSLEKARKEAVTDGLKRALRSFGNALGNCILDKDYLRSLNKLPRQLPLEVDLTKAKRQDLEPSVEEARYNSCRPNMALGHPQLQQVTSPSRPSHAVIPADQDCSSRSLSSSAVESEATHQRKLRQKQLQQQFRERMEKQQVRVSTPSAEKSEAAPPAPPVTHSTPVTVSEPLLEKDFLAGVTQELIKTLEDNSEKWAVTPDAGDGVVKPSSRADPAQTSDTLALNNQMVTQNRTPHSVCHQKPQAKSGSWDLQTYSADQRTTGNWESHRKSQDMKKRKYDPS

Large T antigen = Large T antigen (Simian virus 40, UniProt P03070); assay type: functional, Betapolyomavirus macacae;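 also: Confirmatory-stage PubChem screen for compounds that inhibit SV40 T antigen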
Large T antigen, sequence (P03070 whole entry): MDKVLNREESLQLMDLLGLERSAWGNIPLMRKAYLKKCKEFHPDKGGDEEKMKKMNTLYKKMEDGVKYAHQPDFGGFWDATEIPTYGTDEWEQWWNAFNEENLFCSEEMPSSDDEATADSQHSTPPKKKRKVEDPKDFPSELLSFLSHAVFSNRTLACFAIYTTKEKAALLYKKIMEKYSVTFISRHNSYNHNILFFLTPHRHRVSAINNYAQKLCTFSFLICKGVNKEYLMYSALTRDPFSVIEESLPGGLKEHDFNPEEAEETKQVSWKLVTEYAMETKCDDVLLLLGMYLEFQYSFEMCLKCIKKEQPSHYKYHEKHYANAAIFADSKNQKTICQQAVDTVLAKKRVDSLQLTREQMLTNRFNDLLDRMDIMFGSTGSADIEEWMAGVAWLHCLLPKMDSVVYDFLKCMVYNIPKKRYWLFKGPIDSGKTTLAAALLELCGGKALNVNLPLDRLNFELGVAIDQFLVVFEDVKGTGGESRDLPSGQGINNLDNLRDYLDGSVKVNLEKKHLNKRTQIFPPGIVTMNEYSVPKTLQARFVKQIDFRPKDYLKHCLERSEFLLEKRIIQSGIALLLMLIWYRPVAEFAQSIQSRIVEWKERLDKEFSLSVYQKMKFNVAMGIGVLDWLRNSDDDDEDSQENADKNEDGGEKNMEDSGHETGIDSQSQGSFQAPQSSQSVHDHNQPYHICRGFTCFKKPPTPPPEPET

HEK293 [15] = assay: NOD1 signaling inhibitors, primary screen, cell-based, luminescence, uHTS (AID 1578); assay type: functional; conditions: Homo sapiens
HEK293 [16] = assay: cells; assay type: functional, cell-based; conditions: Homo sapiens
HEK293 [17] = assay: NOD2 signaling inhibitors in MDP-stimulated cells, cell-based, uHTS, luminescence (AID 2001); assay type: functional; conditions: Homo sapiens
[18] = target: FAD-linked sulfhydryl oxidase ALR (Homo sapiens, UniProt P55789); assay: inhibitors of human ALR sulfhydryl oxidase, dose response, biochemical, H2O2 detection, luminescence, cherry-pick (AID 493248)
FAD-linked sulfhydryl oxidase ALR, sequence (P55789 whole entry): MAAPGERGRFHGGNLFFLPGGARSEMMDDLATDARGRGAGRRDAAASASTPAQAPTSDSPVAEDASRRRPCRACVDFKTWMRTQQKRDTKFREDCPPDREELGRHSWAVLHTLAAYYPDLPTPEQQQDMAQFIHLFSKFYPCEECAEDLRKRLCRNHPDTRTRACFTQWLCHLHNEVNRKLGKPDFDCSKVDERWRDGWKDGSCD

Genome polyprotein = Genome polyprotein (dengue virus type 2, UniProt P29990); assay: Dengue-2 NS5 methyltransferase inhibitors, primary screen, biochemical, confirmation dose response (AID 588689); assay type: functional
Genome polyprotein, sequence (P29990 2492-3391 limits assumed): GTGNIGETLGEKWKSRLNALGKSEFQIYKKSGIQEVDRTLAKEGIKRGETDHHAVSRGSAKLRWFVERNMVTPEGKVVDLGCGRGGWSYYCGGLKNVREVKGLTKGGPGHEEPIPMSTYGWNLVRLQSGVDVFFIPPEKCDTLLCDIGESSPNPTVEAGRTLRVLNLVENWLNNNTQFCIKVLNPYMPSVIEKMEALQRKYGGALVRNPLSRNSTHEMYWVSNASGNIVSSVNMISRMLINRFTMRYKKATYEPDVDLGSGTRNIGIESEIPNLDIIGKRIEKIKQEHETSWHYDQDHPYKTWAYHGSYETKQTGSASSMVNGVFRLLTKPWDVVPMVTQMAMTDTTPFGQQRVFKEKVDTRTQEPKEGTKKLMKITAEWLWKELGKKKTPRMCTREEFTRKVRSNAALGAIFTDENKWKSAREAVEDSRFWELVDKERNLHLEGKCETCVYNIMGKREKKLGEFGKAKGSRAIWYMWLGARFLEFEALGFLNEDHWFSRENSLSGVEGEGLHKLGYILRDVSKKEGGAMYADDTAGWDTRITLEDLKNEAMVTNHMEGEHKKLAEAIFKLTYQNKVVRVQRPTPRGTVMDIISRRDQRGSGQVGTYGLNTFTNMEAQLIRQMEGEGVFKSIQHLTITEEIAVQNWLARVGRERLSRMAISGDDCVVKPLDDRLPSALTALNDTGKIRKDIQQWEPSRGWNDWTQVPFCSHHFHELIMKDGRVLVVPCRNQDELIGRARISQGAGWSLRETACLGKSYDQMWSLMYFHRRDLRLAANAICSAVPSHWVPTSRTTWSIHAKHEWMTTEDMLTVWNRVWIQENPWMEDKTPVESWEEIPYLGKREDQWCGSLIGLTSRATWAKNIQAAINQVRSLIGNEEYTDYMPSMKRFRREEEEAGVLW

[19] = inhibitors of firefly luciferase expression or activity, dose response, H4 neuroglioma cells, luminescence (AID 1990); assay type: functional, cell-based
[20] = tested on: Streptococcus sp. 'group A'; assay: growth inhibition of control SK(-) GAS strain, dose response, counter-screen for streptokinase expression inhibitor project, luminescence, kanamycin, BacTiterGlo, confirmation (AID 1900); assay type: functional, organism-based
[21] = Luminescence Cell-Based Dose Response HTS to Identify Inhibitors of 5'UTR Stem-Loop Driven Prion Protein mRNA Translation in H4 Neuroglioblastoma Cells. [Related pubchem assays: 1827 (Project Summary), 1813 (Primary HTS)]; assay type: functional
[22] = inhibitors of SNCA 5'UTR-driven reporter translation, confirmation, H4 neuroglioma cells, luminescence (AID 1988); assay type: functional, cell-based
Streptococcus = assay: Group A Streptococcus viability loss, dose response, counter-screen for streptokinase expression inhibitor project, luminescence, BacTiterGlo (AID 1915); assay type: functional, organism-based;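 also: potency for reduction of bacterial viability or growth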
INS1 = assay: beta cell apoptosis inhibitors, cytokine rescue, dose response, luminescence, retest (AID 449756); assay type: functional, cell-based; conditions: Rattus norvegicus;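 also: cell death triggered by IL-1 beta plus TNF-alpha plus IFN-gamma mixture; protective hits raise ATP signal compared with cytokine alone wells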

Glucose-6-phosphate 1-dehydrogenase, sequence (P11413 whole entry): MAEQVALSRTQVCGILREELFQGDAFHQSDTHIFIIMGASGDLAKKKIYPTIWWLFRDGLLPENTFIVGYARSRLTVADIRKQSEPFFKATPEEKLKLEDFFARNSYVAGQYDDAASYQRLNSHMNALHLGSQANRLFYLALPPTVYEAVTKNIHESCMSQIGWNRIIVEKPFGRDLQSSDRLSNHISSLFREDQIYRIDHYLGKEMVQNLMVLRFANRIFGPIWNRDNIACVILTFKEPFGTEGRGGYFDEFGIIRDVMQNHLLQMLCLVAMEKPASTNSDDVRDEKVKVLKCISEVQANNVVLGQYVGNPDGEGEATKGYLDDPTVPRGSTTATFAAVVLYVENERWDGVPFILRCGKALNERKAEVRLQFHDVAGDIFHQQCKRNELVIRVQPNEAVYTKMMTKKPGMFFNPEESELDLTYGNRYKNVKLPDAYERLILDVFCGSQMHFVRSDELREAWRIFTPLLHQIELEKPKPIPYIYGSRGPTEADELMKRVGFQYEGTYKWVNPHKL

CCN(CC)c1ccc(NC(=O)c2cccc(C)c2)cc1S(=O)(=O)Nc1ccccc1OC
IC50 [1]: > 80 µM (inactive)
IC50 [2]: 51.5 µM (active)

O=C(CCCN1C(=O)c2cccc3cccc(c23)C1=O)NCc1cccnc1
IC50 (Coagulation factor XII): > 50 µM (inactive)

Cc1ccc(OCC(=O)NNC(=S)NC(=O)C2CC2)c(C)c1
EC50 [3]: > 150 µM (inactive)
EC50 [4]: 1.25 µM (active)
EC50 [5]: > 180 µM (inactive)
IC50 (Bcl-2-related protein A1): > 20 µM (inactive)
IC50 [6]: 3.27 µM (active)
IC50 [7]: 1.59 µM (active)
AC50 [8]: 4.32 µM (active)
EC50 [9]: 14.3 µM (active)

CN1CCN(c2ccc(NC(=O)c3ccc(-c4cccc([N+](=O)[O-])c4)o3)cc2)CC1
CC50 [10]: 29 µM (active)
EC50 [11]: 0.299 µM (active)
EC50 [12]: 70 µM (inactive)
EC50 (Mu-type opioid receptor): > 30.8 µM (inactive)
EC50 [13]: > 92.5 µM (inactive)
AC50 [14]: 10.3 µM (active)

CCOC(=O)C1(CCOc2ccccc2)CCN(Cc2ccc(C)s2)CC1
EC50 [12]: > 92.5 µM (inactive)
EC50 (Mu-type opioid receptor): > 92.5 µM (inactive)
EC50 [13]: > 92.5 µM (inactive)

COc1ccc(C2CC(=O)C(C(c3ccc(O)cc3)C3C(=O)CC(c4ccc(OC)cc4)CC3=O)C(=O)C2)cc1 (stereo not given)
IC50 (Large T antigen): 37.3 µM (active)
IC50 (Coagulation factor XII): > 50 µM (inactive)

COc1ccc(-c2oc3ncnc(N)c3c2-c2ccccc2)cc1
IC50 (Bcl-2-related protein A1): > 20 µM (inactive)
IC50 [6]: 7.81 µM (active)
IC50 [7]: 3.58 µM (active)

COc1ccccc1NS(=O)(=O)c1cccc(NC(=O)c2ccc3ccccc3n2)c1
EC50 (HEK293 [15]): 6.61 µM (active)
IC50 (HEK293 [16]): > 20 µM (inactive)
IC50 (HEK293 [17]): 7.38 µM (active)

NS(=O)(=O)c1ccc(-c2ccc(C=C3C(=O)NC(=O)NC3=O)o2)cc1
IC50 [1]: 27.4 µM (inactive)
AC50 [18]: 1.16 µM (active)
IC50 (Genome polyprotein): > 100 µM (active)

COc1cc(Br)cc(/C=N/NC(=O)Cc2ccc(C(F)(F)F)cc2[N+](=O)[O-])c1O
EC50 [19]: > 120 µM (not active)
EC50 [20]: 1.84 µM (active)
EC50 [21]: 12.6 µM (active)
EC50 [22]: 9.21 µM (active)
EC50 (Streptococcus): 2.42 µM (active)
EC50 [12]: > 92.4 µM (inactive)
EC50 (Mu-type opioid receptor): > 92.4 µM (inactive)
EC50 [13]: > 92.4 µM (inactive)
AC50 (INS1): 4.33 µM (active)
